pIC50: −log10 of the molar value. Structures can show the parent of a compound that is named as a salt.
How the values were obtained:
p38 alpha = biological target: T1, p38 alpha (Homo sapiens, UniProt Q16539); assay: P38 alpha enzyme inhibition assay (Alphascreen kinase activity assay); assay type: biochemical; details: 100 pM p38 alpha, 2 hours preincubation at 25° C., 250 μM ATP, ATF-2 fusion protein; read-out: p38α inhibition
T1 construct: purchased Invitrogen PV3304
Method in brief: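 100 pM p38 alpha preincubated 2 h at 25 °C with compound and 0.3 μg/ml ATF-2 fusion substrate (HEPES pH 7.5, MgCl2, 1% DMSO). Reaction started with 250 μM ATP, run 1 h at 25 °C, stopped with EDTA; phospho-ATF2 detected by AlphaScreen luminescence. IC50 from concentration-response curves.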

[1] = test system: Peripheral Blood Mononuclear Cells (PBMCs), TNFα release; assay: LPS-stimulated PBMC TNFα release assay; assay type: cell-based; details: human PBMC, LPS (10 ng/ml), 18 h, compound 1 h before LPS; read-out: LPS-stimulated PBMC TNFα release inhibition
Method in brief: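 Human PBMCs from healthy donors, serum-starved 3 h, then pre-incubated 1 h at 37 °C with compound in 1% FBS medium before LPS (10 ng/ml) for 18 h. Supernatant TNFα measured by MSD; IC50 from dose-response as % inhibition of control, at least three experiments.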

T1 sequence (Q16539 whole entry, the tested form may be a part): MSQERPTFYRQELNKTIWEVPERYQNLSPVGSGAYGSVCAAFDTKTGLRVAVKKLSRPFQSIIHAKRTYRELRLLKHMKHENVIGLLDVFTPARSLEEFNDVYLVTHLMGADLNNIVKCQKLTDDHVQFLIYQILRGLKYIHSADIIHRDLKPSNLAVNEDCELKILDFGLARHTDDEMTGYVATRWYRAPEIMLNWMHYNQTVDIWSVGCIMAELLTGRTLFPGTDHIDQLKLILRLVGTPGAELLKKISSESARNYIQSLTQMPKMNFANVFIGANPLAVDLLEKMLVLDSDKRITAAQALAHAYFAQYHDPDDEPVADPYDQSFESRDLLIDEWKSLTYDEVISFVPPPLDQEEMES

| SMILES | pIC50 (p38 alpha) | pIC50 [1] |
| --- | --- | --- |
| CCC(CC)c1nnc2ccc(O[C@@H]3CC[C@H](NC(=O)Nc4cc(C(C)(C)C)nc(C(=O)NCCN(CCOC)CCOC)n4)c4ccccc43)cn12 [Example 85, N-(2-(bis(2-methoxyethyl)amino)ethyl)-4-(tert-butyl)-6-(3-((1S,4R)-4-((3-(pentan-3-yl)-[1,2,4]triazolo[4,3-a]pyridin-6-yl)oxy)-1,2,3,4-tetrahydronaphthalen-1-yl)ureido)pyrimidine-2-carboxamide] | > 9.00 | < 8.30 |
| CN(C)CCNC(=O)c1nc(NC(=O)N[C@H]2CC[C@@H](Oc3ccc4nnc([C@]5(C)CCCN5)n4c3)c3ccccc32)cc(C(C)(C)C)n1 [Example 34, 4-(tert-Butyl)-N-(2-(dimethylamino)ethyl)-6-(3-((1S,4R)-4-((3-((S)-2-methylpyrrolidin-2-yl)-[1,2,4]triazolo[4,3-a]pyridin-6-yl)oxy)-1,2,3,4-tetrahydronaphthalen-1-yl)ureido)pyrimidine-2-carboxamide] | 8.00 to 9.00 | < 8.30 |
| CC(C)(C)c1cc(NC(=O)N[C@H]2CC[C@@H](Oc3ccc4nnc(C(C)(C)C)n4c3)c3ccccc32)nc(C(=O)NCCN2CC[C@@H](O)C2)n1 [Example 93, 4-(tert-butyl)-6-(3-((1S,4R)-4-((3-(tert-butyl)-[1,2,4]triazolo[4,3-a]pyridin-6-yl)oxy)-1,2,3,4-tetrahydronaphthalen-1-yl)ureido)-N-(2-((R)-3-hydroxypyrrolidin-1-yl)ethyl)pyrimidine-2-carboxamide] | > 9.00 | < 8.30 |
| CC(C)(C)c1cc(NC(=O)N[C@H]2CC[C@@H](Oc3ccc4nnc(C(C)(C)C)n4c3)c3ccccc32)nc(CN2CCOCC2)n1 [Example 21, 1-(6-(tert-Butyl)-2-(morpholinomethyl)pyrimidin-4-yl)-3-((1S,4R)-4-((3-(tert-butyl)-[1,2,4]triazolo[4,3-a]pyridin-6-yl)oxy)-1,2,3,4-tetrahydronaphthalen-1-yl)urea] | 8.00 to 9.00 | < 8.30 |
| CCC(C)(C)c1nnc2ccc(O[C@@H]3CC[C@H](NC(=O)Nc4cc(C(C)(C)C)nc(C(=O)NCCCN5CCOCC5)n4)c4ccccc43)cn12 [Example 132, 4-(tert-butyl)-N-(3-morpholinopropyl)-6-(3-((1S,4R)-4-((3-(tert-pentyl)-[1,2,4]triazolo[4,3-a]pyridin-6-yl)oxy)-1,2,3,4-tetrahydronaphthalen-1-yl)ureido)pyrimidine-2-carboxamide] | > 9.00 | 8.30 to 9.00 |
| CN1CC[C@@H](NC(=O)c2nc(NC(=O)N[C@H]3CC[C@@H](Oc4ccc5nnc(C(C)(C)C)n5c4)c4ccccc43)cc(C(C)(C)C)n2)C1 [Example 129, 4-(tert-butyl)-6-(3-((1S,4R)-4-((3-(tert-butyl)-[1,2,4]triazolo[4,3-a]pyridin-6-yl)oxy)-1,2,3,4-tetrahydronaphthalen-1-yl)ureido)-N-((R)-1-methylpyrrolidin-3-yl)pyrimidine-2-carboxamide] | > 9.00 | < 8.30 |
| COCC(C)(C)c1nnc2ccc(O[C@@H]3CC[C@H](NC(=O)Nc4cc(C(C)(C)C)nc(C(=O)NCC5(N(C)C)CCC5)n4)c4ccccc43)cn12 [Example 158, 4-(tert-Butyl)-N-((1-(dimethylamino)-cyclobutyl)methyl)-6-(3-((1S,4R)-4-((3-(1-methoxy-2-methylpropan-2-yl)-[1,2,4]triazolo[4,3-a]pyridin-6-yl)oxy)-1,2,3,4-tetrahydronaphthalen-1-yl)ureido)pyrimidine-2-carboxamide formate salt] | > 9.00 | 8.30 to 9.00 |
| COCC(C)(C)c1nnc2ccc(O[C@@H]3CC[C@H](NC(=O)Nc4cc(C(=O)NCCN(C)C)nc(C(C)(C)C)c4)c4ccccc43)cn12 [Example 190, 6-(tert-butyl)-N-(2-(dimethylamino)ethyl)-4-(3-((1S,4R)-4-((3-(1-methoxy-2-methylpropan-2-yl)-[1,2,4]triazolo[4,3-a]pyridin-6-yl)oxy)-1,2,3,4-tetrahydronaphthalen-1-yl)ureido)picolinamide] | > 9.00 | 8.30 to 9.00 |
| CN1CCC[C@@]1(C)c1nnc2ccc(O[C@@H]3CC[C@H](NC(=O)Nc4cc(C(C)(C)C)ccn4)c4ccccc43)cn12 [Example 44, 1-(4-(tert-Butyl)pyridin-2-yl)-3-((1S,4R)-4-((3-((S)-1,2-dimethylpyrrolidin-2-yl)-[1,2,4]triazolo[4,3-a]pyridin-6-yl)oxy)-1,2,3,4-tetrahydronaphthalen-1-yl)urea] | > 9.00 | 8.30 to 9.00 |
| CC[C@H](C)c1nnc2ccc(O[C@@H]3CC[C@H](NC(=O)Nc4cc(C(=O)NCCN(C)C)nc(C(C)(C)C)c4)c4ccccc43)cn12 [Example 201, 6-(tert-Butyl)-4-(3-((1S,4R)-4-((3-((S)-sec-butyl)-[1,2,4]triazolo[4,3-a]pyridin-6-yl)oxy)-1,2,3,4-tetrahydronaphthalen-1-yl)ureido)-N-(2-(dimethylamino)ethyl)-picolinamide formate salt] | > 9.00 | 8.30 to 9.00 |
| CC(C)(C)c1cc(NC(=O)N[C@H]2CC[C@@H](Oc3ccc4nnc(C(C)(C)C)n4c3)c3ccccc32)nc(C(=O)NCCN2CCOCC2)n1 [Example 68, 4-(tert-butyl)-6-(3-((1S,4R)-4-((3-(tert-butyl)-[1,2,4]triazolo[4,3-a]pyridin-6-yl)oxy)-1,2,3,4-tetrahydronaphthalen-1-yl)ureido)-N-(2-morpholinoethyl)pyrimidine-2-carboxamide] | > 9.00 | 8.30 to 9.00 |
| COC(C)(C)c1nnc2ccc(O[C@@H]3CC[C@H](NC(=O)Nc4cc(C(C)(C)C)nc(C(=O)NCCN(C)C)n4)c4ccccc43)cn12 [Example 96, 4-(tert-butyl)-N-(2-(dunethylamino)ethyl)-6-(3-((1S,4R)-4-((3-(2-methoxypropan-2-yl)-[1,2,4]triazolo[4,3-a]pyridin-6-yl)oxy)-1,2,3,4-tetrahydronaphthalen-1-yl)ureido)pyrimidine-2-carboxamide] | 8.00 to 9.00 | 8.30 to 9.00 |
| COCC(C)(C)c1nnc2ccc(O[C@@H]3CC[C@H](NC(=O)Nc4cc(C(C)(C)C)nc(C(=O)NCCN5CC(OC)C5)n4)c4ccccc43)cn12 [Example 166, 4-(tert-butyl)-6-(3-((1S,4R)-4-((3-(1-methoxy-2-methylpropan-2-yl)-[1,2,4]triazolo[4,3-a]pyridin-6-yl)oxy)-1,2,3,4-tetrahydronaphthalen-1-yl)ureido)-N-(2-(3-methoxyazetidin-1-yl)ethyl)pyrimidine-2-] | > 9.00 | < 8.30 |
| CN(C)C(C)(C)CNC(=O)c1nc(NC(=O)N[C@H]2CC[C@@H](Oc3ccc4nnc(C5(C)CCCC5)n4c3)c3ccccc32)cc(C(C)(C)C)n1 [Example 183, 4-(tert-butyl)-N-(2-(dimethylamino)-2-methylpropyl)-6-(3-((1S,4R)-4-((3-(1-methylcyclopentyl)-[1,2,4]triazolo[4,3-a]pyridin-6-yl)oxy)-1,2,3,4-tetrahydronaphthalen-1-yl)ureido)pyrimidine-2-carboxamide] | > 9.00 | 8.30 to 9.00 |
| CCC(CC)c1nnc2ccc(O[C@@H]3CC[C@H](NC(=O)Nc4cc(C(=O)NCCN(C)C)nc(C(C)(C)C)c4)c4ccccc43)cn12 [Example 207, 6-(tert-butyl)-N-(2-(dimethylamino)ethyl)-4-(3-((1S,4R)-4-((3-(pentan-3-yl)-[1,2,4]triazolo[4,3-a]pyridin-6-yl)oxy)-1,2,3,4-tetrahydronaphthalen-1-yl)ureido)picolinamide] | > 9.00 | > 9.00 |
| CN1CC[C@H](NC(=O)c2nc(NC(=O)N[C@H]3CC[C@@H](Oc4ccc5nnc(C(C)(C)C)n5c4)c4ccccc43)cc(C(C)(C)C)n2)C1 [Example 136, 4-(tert-butyl)-6-(3-((1S,4R)-4-((3-(tert-butyl)-[1,2,4]triazolo[4,3-a]pyridin-6-yl)oxy)-1,2,3,4-tetrahydronaphthalen-1-yl)ureido)-N-((S)-1-methylpyrrolidin-3-yl)pyrimidine-2-carboxamide] | > 9.00 | < 8.30 |
| CC(C)(C)c1cc(NC(=O)N[C@H]2CC[C@@H](Oc3ccc4nnc(C(C)(C)C)n4c3)c3ccccc32)nc(CN(CCO)CCO)n1 [Example 87, 1-(2-((bis(2-hydroxyethyl)amino)methyl)-6-(tert-butyl)pyrimidin-4-yl)-3-((1S,4R)-4-((3-(tert-butyl)-[1,2,4]triazolo[4,3-a]pyridin-6-yl)oxy)-1,2,3,4-tetrahydronaphthalen-1-yl)urea] | > 9.00 | < 8.30 |
| CCC(C)(C)c1nnc2ccc(O[C@@H]3CC[C@H](NC(=O)Nc4cc(C(C)(C)C)nc(C(=O)NCCN(C)C)n4)c4ccccc43)cn12 [Example 3, 4-(tert-Butyl)-N-(2-(dimethylamino)ethyl)-6-(3-((1S,4R)-4-((3-(tert-pentyl)-[1,2,4]triazolo[4,3-a]pyridin-6-yl)oxy)-1,2,3,4-tetrahydronaphthalen-1-yl)ureido)pyrimidine-2-carboxamide] | > 9.00 | 8.30 to 9.00 |
| C[C@H]1CCCCN1c1nnc2ccc(O[C@@H]3CC[C@H](NC(=O)Nc4cc(C(C)(C)C)nc(CN(C)C)n4)c4ccccc43)cn12 [Example 15, 1-(6-(tert-Butyl)-2-((dimethylamino)methyl)pyrimidin-4-yl)-3-((1S,4R)-4-((3-((S)-2-methylpiperidin-1-yl)-[1,2,4]triazolo[4,3-a]pyridin-6-yl)oxy)-1,2,3,4-tetrahydronaphthalen-1-yl)urea] | > 9.00 | < 8.30 |
